# Laboratory results reported in ChEMBL document CHEMBL4014262, “Phloroglucinol Derivatives with Protein Tyrosine Phosphatase 1B Inhibitory Activities from Eugenia jambolana Seeds” (J Nat Prod, 2017).
# Target: T1, Tyrosine-protein phosphatase non-receptor type 1 (Homo sapiens, UniProt P18031)
# T1 sequence (P18031 whole entry): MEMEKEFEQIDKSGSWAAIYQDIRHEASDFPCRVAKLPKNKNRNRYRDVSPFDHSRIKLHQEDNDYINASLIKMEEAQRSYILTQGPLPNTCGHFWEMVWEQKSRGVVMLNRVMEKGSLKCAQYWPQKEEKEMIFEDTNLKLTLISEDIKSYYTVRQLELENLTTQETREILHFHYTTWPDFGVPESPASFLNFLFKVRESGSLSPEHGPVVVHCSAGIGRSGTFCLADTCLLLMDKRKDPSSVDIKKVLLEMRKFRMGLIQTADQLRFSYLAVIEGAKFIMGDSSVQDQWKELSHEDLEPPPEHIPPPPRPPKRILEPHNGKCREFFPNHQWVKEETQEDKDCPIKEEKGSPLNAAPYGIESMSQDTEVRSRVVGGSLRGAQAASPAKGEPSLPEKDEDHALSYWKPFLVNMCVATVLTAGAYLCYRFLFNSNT
# Assay: Inhibition of GST-tagged PTP1B (1 to 321 residues) (unknown origin) using p-NPP as substrate preincubated for 10 mins followed by substrate addition measured after 30 mins
row,SMILES,IC50 [nM]
1,CC/C=C\C/C=C\C/C=C\CCCCCCCC1(O)CC(=O)c2c(O)c(C)c(O)c(C)c2O1 (stereo unspecified),1600
2,CCCCC/C=C\C/C=C\CCCCCCCC1(O)CC(=O)c2c(O)c(C)c(O)c(C)c2O1 (stereo unspecified),2700
3,CCCC/C=C\CCCCCCCCCC1(O)CC(=O)c2c(O)c(C)c(O)c(C)c2O1 (stereo unspecified),1800
4,CC/C=C\C/C=C\C/C=C\CCCCCCCC1(O)CC(=O)c2c(O)cc(O)cc2O1 (stereo unspecified),450
5,CCCCC/C=C\C/C=C\CCCCCCCC1(O)CC(=O)c2c(O)cc(O)cc2O1 (stereo unspecified),420
6,CCCCCCCCCCCCCCCC1(O)CC(=O)c2c(O)cc(O)cc2O1 (stereo unspecified),2000
